Common to all, as to assay: NCI anticancer screen, dose series, 48 h
In experiment [1] the test system is EKVX.
Experiment [2] has as its system HL-60.
Experiment [3] deals with HOP-62.
The subject of experiment [4] is HT-29.
For experiment [5], the system named is Hs-578T.
The test system of experiment [6] is IGROV-1.
The subject of experiment [7] is K562.
Experiment [8] relates to LOX IMVI.
For experiment [9], the system named is M14.
The test system of experiment [10] is NCI-H226.
Experiment [11] relates to OVCAR-5.
The subject of experiment [12] is RPMI-8226.
The test system of experiment [13] is RXF 393.
The test system of experiment [14] is SK-MEL-2.
Experiment [15] deals with SK-OV-3.
Experiment [16] has as its system TK-10.
The test system of experiment [17] is U-251.
The test system of experiment [18] is UACC-257.
For experiment [19], the system named is UO-31.
Experiment [20] concerns OVCAR-3.

SMILES strings stand for the structures.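 Dose response: 5 concentrations. Exposure: 48 h. Format: 96-well plates. Endpoint: linear interpolation; highest concentration if not reached. At the GI50, growth is halved.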 The source made the active and inactive calls. Cut-off read from the data, not from the text of the source: active = GI50 up to about 1.1 µM and inactive = higher.

The text below walks through data of ChEMBL document CHEMBL1201862, “PubChem BioAssay data set” (2004).

As for `Cc1ccc2[nH]c3c(c(=O)n(C)c(=O)n3C)c2c1`, the GI50 in experiment [1], in [2], in experiment [3], in experiment [4], in [5] and in [6] was > 100 µM (inactive) throughout. In addition, the GI50 in experiment [7], in experiment [8], in experiment [9], in experiment [10], in experiment [11] and in experiment [12] was > 100 µM (inactive) each time. Also, the GI50 in [13] is > 10 µM (inactive); in [14], > 100 µM (inactive); in experiment [15], > 100 µM (inactive); in [16], > 100 µM (inactive); in experiment [17], > 100 µM (inactive); in experiment [18], > 100 µM (inactive). Also, the GI50 in experiment [19] is > 100 µM (inactive).
For the compound `CCCCCC/C=C\CCCCCCCCCc1cccc(OC)c1O`, the GI50 in experiment [1], in experiment [2], in experiment [3], in experiment [4], in experiment [5] and in [6] was > 100 µM (inactive) throughout. The GI50 in experiment [7], in [8], in experiment [9], in experiment [10], in experiment [11] and in experiment [12] was > 100 µM (inactive) in each case. The GI50 in experiment [13] is 67.6 µM (inactive); in experiment [14] it was > 100 µM (inactive); in experiment [15] it was > 100 µM (inactive); in experiment [16], > 100 µM (inactive); in experiment [17] it was > 100 µM (inactive); in experiment [18] it was > 100 µM (inactive). Also, the GI50 in experiment [19] is > 100 µM (inactive).
As to `CCOC(=O)c1ccc(NC2Oc3cc4c(cc3C(c3cc(OC)c(OC)c(OC)c3)C2C)OCO4)cc1` (stereo unspecified), the GI50 in [1] was 4.24 µM (inactive); in [2], 0.209 µM (active); in experiment [3], 0.789 µM (active); in [4] it was 0.31 µM (active); in experiment [5], 1.24 µM (inactive); in [6] it was 0.48 µM (active). In addition, the GI50 is 0.329 µM (active) in experiment [7]; 0.61 µM (active) in experiment [8]; 0.522 µM (active) in experiment [9]; 1.51 µM (inactive) in [10]; 0.352 µM (active) in experiment [20]; 3.94 µM (inactive) in [11]. For the same compound, the GI50 in experiment [12] is 0.296 µM (active); in experiment [13] it was 0.552 µM (active); in experiment [14], 0.675 µM (active); in experiment [15], 0.483 µM (active); in [16] it was 15.6 µM (inactive); in experiment [17] it was 0.433 µM (active). The GI50 in experiment [19] was 0.351 µM (active).
Consider `COc1cccc(Nc2nc(NNC(=O)Cc3ccccc3)nc(NNC(=O)c3ccncc3)n2)c1`, for which the GI50 was > 10 µM (inactive) in [1]; 68.1 µM (inactive) in experiment [2]; > 10 µM (inactive) in experiment [3]; > 100 µM (inactive) in experiment [4]; > 10 µM (inactive) in experiment [5]; > 10 µM (inactive) in experiment [6]. In addition, the GI50 in experiment [7] was > 10 µM (inactive); in experiment [8], 13.4 µM (inactive); in experiment [9] it was 79.4 µM (inactive); in experiment [10] it was > 100 µM (inactive); in experiment [20] it was > 100 µM (inactive); in experiment [11], > 100 µM (inactive). In addition, the GI50 was > 10 µM (inactive) in experiment [12]; > 100 µM (inactive) in experiment [13]; > 100 µM (inactive) in experiment [14]; > 10 µM (inactive) in experiment [15]; > 10 µM (inactive) in experiment [16]; > 10 µM (inactive) in [17]. The GI50 in [18] was > 10 µM (inactive); in experiment [19] it was 6.32 µM (inactive).
For the compound `O=c1[nH]c(=O)c2c([nH]1)[nH]c1ccccc12`, the GI50 in experiment [1] was > 100 µM (inactive); in [2], > 10 µM (inactive); in experiment [3], > 100 µM (inactive); in [4], > 100 µM (inactive); in experiment [5], > 100 µM (inactive); in [6], > 100 µM (inactive). Moreover, the GI50 was > 100 µM (inactive) in [7]; > 100 µM (inactive) in experiment [8]; > 100 µM (inactive) in experiment [9]; > 100 µM (inactive) in experiment [10]; 65.2 µM (inactive) in [20]; > 100 µM (inactive) in experiment [11]. Also, the GI50 in [12], in experiment [13], in [14], in experiment [15], in experiment [16] and in experiment [18] was > 100 µM (inactive) throughout. Besides, the GI50 in experiment [19] was > 100 µM (inactive).
For the compound `CCC(=O)Nc1ccc(NS(=O)(=O)c2ccc(Cl)cc2)cc1`, the GI50 in [1] was 39.8 µM (inactive); in [2] it was 28.2 µM (inactive); in experiment [3], > 100 µM (inactive); in experiment [4] it was > 100 µM (inactive); in experiment [5], > 100 µM (inactive); in experiment [6] it was > 100 µM (inactive). In addition, the GI50 in experiment [7] is 29.9 µM (inactive); in experiment [8], > 100 µM (inactive); in experiment [9], > 100 µM (inactive); in [10] it was 19.5 µM (inactive); in [20], 43.5 µM (inactive); in experiment [11], > 100 µM (inactive). The GI50 is 17.7 µM (inactive) in experiment [12]; > 100 µM (inactive) in [13]; > 100 µM (inactive) in [14]; > 100 µM (inactive) in experiment [15]; 87.7 µM (inactive) in [18]; > 100 µM (inactive) in experiment [19].
`COc1ccc(Cc2nc3cc(C(F)(F)F)ccc3n2C[C@@H]2CCCN3CCCCC23)cc1` (stereo partly specified): the GI50 was 13.6 µM (inactive) in experiment [1]; 4.81 µM (inactive) in [2]; 8.73 µM (inactive) in experiment [3]; 5.06 µM (inactive) in experiment [4]; 19.9 µM (inactive) in experiment [5]; 5.42 µM (inactive) in experiment [6]. In addition, the GI50 was 13.7 µM (inactive) in experiment [7]; 10.5 µM (inactive) in experiment [8]; 2.72 µM (inactive) in [9]; 18.1 µM (inactive) in experiment [10]; 5.77 µM (inactive) in [20]; 13.7 µM (inactive) in [11]. Further, the GI50 in experiment [12] was 11.6 µM (inactive); in [13], 5.4 µM (inactive); in experiment [14], 15.6 µM (inactive); in experiment [15] it was 15.1 µM (inactive); in experiment [16], 9.1 µM (inactive); in [17], 13.2 µM (inactive). Besides, the GI50 in [18] is 2.46 µM (inactive).
Turning to `C=CCSC1=N/C(=C\c2ccco2)C(=O)N1CC=C`, the GI50 is 40.3 µM (inactive) in [1]; 26.8 µM (inactive) in experiment [2]; > 100 µM (inactive) in [3]; 68.4 µM (inactive) in [4]; > 100 µM (inactive) in [5]; > 100 µM (inactive) in experiment [6]. Besides, the GI50 in [7] is 35.2 µM (inactive); in [8], 69.3 µM (inactive); in experiment [9] it was > 100 µM (inactive); in [10], 34.4 µM (inactive); in [20], 95.3 µM (inactive); in [11] it was > 100 µM (inactive). In addition, the GI50 is 28.2 µM (inactive) in experiment [12]; 22.5 µM (inactive) in [13]; > 100 µM (inactive) in [14]; > 100 µM (inactive) in experiment [15]; > 100 µM (inactive) in experiment [16]; > 100 µM (inactive) in experiment [17]. For the same compound, the GI50 in experiment [18] was 77.6 µM (inactive); in experiment [19], 53 µM (inactive).
Take `Cc1ccc(C)c(NC(=O)C(=O)C(c2cnc3ccc([N+](=O)[O-])cc3n2)[N+](=O)[O-])c1` (stereo unspecified): the GI50 in experiment [1] is 30.8 µM (inactive); in experiment [2], 14.9 µM (inactive); in experiment [3] it was 20.9 µM (inactive); in experiment [4] it was 61.2 µM (inactive); in [5] it was > 100 µM (inactive); in experiment [6], 26.5 µM (inactive). Moreover, the GI50 is 41.4 µM (inactive) in experiment [7]; 56.9 µM (inactive) in [9]; 34.1 µM (inactive) in experiment [10]; 68.1 µM (inactive) in experiment [20]; > 100 µM (inactive) in experiment [11]; 0.102 µM (active) in experiment [12]. Further, the GI50 in experiment [13] was 50.1 µM (inactive); in experiment [14], > 100 µM (inactive); in [15], 32.4 µM (inactive); in [16], 27.3 µM (inactive); in [17], 40.8 µM (inactive); in experiment [18] it was 38.6 µM (inactive). For the same compound, the GI50 in [19] was 29.2 µM (inactive).
As to `C[C@@H](c1ccccc1)N1CN(C(=O)OCc2ccccc2)C(C)(C)CC1=O`, the GI50 is > 100 µM (inactive) in experiment [1]; 66.8 µM (inactive) in experiment [2]; > 100 µM (inactive) in experiment [3]; > 100 µM (inactive) in experiment [4]; > 100 µM (inactive) in experiment [5]; > 100 µM (inactive) in experiment [6]. Besides, the GI50 in [7], in experiment [8], in experiment [9], in experiment [10], in experiment [20] and in experiment [11] was > 100 µM (inactive) each time. Also, the GI50 in experiment [12] is > 100 µM (inactive); in experiment [13] it was 15.5 µM (inactive); in experiment [14], > 100 µM (inactive); in [15], > 100 µM (inactive); in experiment [16], > 100 µM (inactive); in experiment [17], > 100 µM (inactive). In experiment [18], the GI50 is 78.2 µM (inactive).
